From patent publication US11077090B2, “Compounds and compositions and uses thereof” (Sunovion Pharmaceuticals Inc., priority 2016, dated 2021)
Where two headings read alike, the source gives them in different places.

System: compound-treated mice
Experiment: Neuropharmacological assay (SmartCube): behavioral activity signature and minimal effective dose
Type: in vivo
Conditions: for minimal effective dose: Mus musculus, ip, MED = dose having 50% or more total activity; for AD: ADHD (probability of activity signature) / AG: analgesic (probability of activity signature) / AX: anxiolytic (probability of activity signature) / CE: cognitive enhancer (probability of activity signature) / DP: anti-depressant (probability of activity signature) / MS: mood stabilizer (probability of activity signature) / PS: anti-psychotic (probability of activity signature) / SD: sedative hypnotic (probability of activity signature) / UN: uncharacterized CNS activity (probability of activity signature): i.p. 15 min before test, most efficacious dose(s)
How it was run: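 Mice dosed i.p. 15 min before test, compound in N-methyl-2-pyrrolidone/PEG/propylene glycol, 3 doses; video-captured behavior matched to reference-drug signatures, giving per-class probabilities at most efficacious dose. MED from doses typically 0.3–30 mpk, defined as lowest dose with ≥50% total activity.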

[1] = read-out: Potency: minimal effective dose (MED)
[2] = read-out: Potency: minimal effective dose (MED), binned

| Compound | minimal effective dose [1] | AD: ADHD (probability of activity signature) | AG: analgesic (probability of activity signature) | AX: anxiolytic (probability of activity signature) | CE: cognitive enhancer (probability of activity signature) | DP: anti-depressant (probability of activity signature) | MS: mood stabilizer (probability of activity signature) | PS: anti-psychotic (probability of activity signature) | SD: sedative hypnotic (probability of activity signature) | UN: uncharacterized CNS activity (probability of activity signature) | minimal effective dose [2] |
| --- | --- | --- | --- | --- | --- | --- | --- | --- | --- | --- | --- |
| COc1ccc2c(c1)COCC2N.Cl (stereo not drawn) [Example 14] | 10 to 30 mg/kg | + (LOQ ≤ + <5%) | ++ (5% ≤ ++ <25%) | ++ (5% ≤ ++ <25%) | + (LOQ ≤ + <5%) | ++ (5% ≤ ++ <25%) | + (LOQ ≤ + <5%) | + (LOQ ≤ + <5%) | + (LOQ ≤ + <5%) | ++++ (50% ≤ ++++) | – |
| C[C@H]1OCc2c(Cl)cccc2[C@@H]1N.Cl [Example 87] | 3 to 10 mg/kg | + (LOQ ≤ + <5%) | ++ (5% ≤ ++ <25%) | ++ (5% ≤ ++ <25%) | ++ (5% ≤ ++ <25%) | ++ (5% ≤ ++ <25%) | + (LOQ ≤ + <5%) | ++ (5% ≤ ++ <25%) | ++ (5% ≤ ++ <25%) | +++ (25% ≤ +++ <50%) | – |
| CCN(C)C(=O)Oc1ccc2c(c1)[C@H](N)[C@@H](C)OC2.Cl [Example 282] | – | + (LOQ ≤ + <5%) | + (LOQ ≤ + <5%) | + (LOQ ≤ + <5%) | + (LOQ ≤ + <5%) | + (LOQ ≤ + <5%) | + (LOQ ≤ + <5%) | + (LOQ ≤ + <5%) | ++ (5% ≤ ++ <25%) | + (LOQ ≤ + <5%) | > 30 mg/kg |
| CCC[C@H]1OCc2ccccc2[C@@H]1N (single isomer, unassigned) [Example 251] | – | ++ (5% ≤ ++ <25%) | + (LOQ ≤ + <5%) | ++ (5% ≤ ++ <25%) | + (LOQ ≤ + <5%) | + (LOQ ≤ + <5%) | ++ (5% ≤ ++ <25%) | ++ (5% ≤ ++ <25%) | ++ (5% ≤ ++ <25%) | ++ (5% ≤ ++ <25%) | 3 to 10 mg/kg |
| CCCN[C@@H]1c2ccccc2CO[C@@H]1C.Cl [Example 269] | – | + (LOQ ≤ + <5%) | + (LOQ ≤ + <5%) | + (LOQ ≤ + <5%) | + (LOQ ≤ + <5%) | ++ (5% ≤ ++ <25%) | ++ (5% ≤ ++ <25%) | + (LOQ ≤ + <5%) | ++ (5% ≤ ++ <25%) | ++ (5% ≤ ++ <25%) | 3 to 10 mg/kg |
| CNC1COCc2ccc(C)c(C)c21.Cl (stereo not drawn) [Example 57, N,5,6-Trimethylisochroman-4-amine hydrochloride] | 3 to 10 mg/kg | + (LOQ ≤ + <5%) | ++ (5% ≤ ++ <25%) | ++ (5% ≤ ++ <25%) | +++ (25% ≤ +++ <50%) | ++ (5% ≤ ++ <25%) | + (LOQ ≤ + <5%) | ++ (5% ≤ ++ <25%) | ++ (5% ≤ ++ <25%) | +++ (25% ≤ +++ <50%) | – |
| Cc1ccc2c(c1)CO[C@H](C)[C@H]2N [Example 252] | – | + (LOQ ≤ + <5%) | + (LOQ ≤ + <5%) | + (LOQ ≤ + <5%) | + (LOQ ≤ + <5%) | ++ (5% ≤ ++ <25%) | ++ (5% ≤ ++ <25%) | ++ (5% ≤ ++ <25%) | ++ (5% ≤ ++ <25%) | ++++ (50% ≤ ++++) | < 3 mg/kg |
| CCN(C)C(=O)Oc1ccc2c(c1)CO[C@H](C)[C@H]2N.Cl [Example 280] | – | + (LOQ ≤ + <5%) | + (LOQ ≤ + <5%) | + (LOQ ≤ + <5%) | ++ (5% ≤ ++ <25%) | ++ (5% ≤ ++ <25%) | ++ (5% ≤ ++ <25%) | + (LOQ ≤ + <5%) | ++ (5% ≤ ++ <25%) | + (LOQ ≤ + <5%) | 3 to 10 mg/kg |
| Cc1cccc2c1[C@@H](N)COC2 (single isomer, unassigned) [Example 134] | 3 to 10 mg/kg | + (LOQ ≤ + <5%) | ++ (5% ≤ ++ <25%) | +++ (25% ≤ +++ <50%) | ++ (5% ≤ ++ <25%) | ++ (5% ≤ ++ <25%) | + (LOQ ≤ + <5%) | ++ (5% ≤ ++ <25%) | ++ (5% ≤ ++ <25%) | +++ (25% ≤ +++ <50%) | – |
| CC[C@@H]1OCc2ccc(C)cc2[C@@H]1N.Cl (relative stereo) [Example 100, cis-3-Ethyl-6-methylisochroman-4-amine hydrochloride] | < 3 mg/kg | + (LOQ ≤ + <5%) | ++ (5% ≤ ++ <25%) | ++ (5% ≤ ++ <25%) | ++ (5% ≤ ++ <25%) | ++ (5% ≤ ++ <25%) | + (LOQ ≤ + <5%) | +++ (25% ≤ +++ <50%) | ++ (5% ≤ ++ <25%) | +++ (25% ≤ +++ <50%) | – |
| C[C@@H]1OCc2ccc3ccccc3c2[C@@H]1N.Cl (single isomer, unassigned) [Example 91] | 10 to 30 mg/kg | + (LOQ ≤ + <5%) | ++ (5% ≤ ++ <25%) | + (LOQ ≤ + <5%) | ++ (5% ≤ ++ <25%) | + (LOQ ≤ + <5%) | + (LOQ ≤ + <5%) | ++ (5% ≤ ++ <25%) | ++ (5% ≤ ++ <25%) | +++ (25% ≤ +++ <50%) | – |
| Cl.NC1COCc2ccc(-c3ccccc3)cc21 (stereo not drawn) [Example 7, 6-Phenylisochroman-4-amine hydrochloride] | 10 to 30 mg/kg | + (LOQ ≤ + <5%) | + (LOQ ≤ + <5%) | ++ (5% ≤ ++ <25%) | ++ (5% ≤ ++ <25%) | ++ (5% ≤ ++ <25%) | ++ (5% ≤ ++ <25%) | ++ (5% ≤ ++ <25%) | + (LOQ ≤ + <5%) | +++ (25% ≤ +++ <50%) | – |
| CC[C@H]1OCc2ccc(F)cc2[C@@H]1N [Example 181] | – | + (LOQ ≤ + <5%) | ++ (5% ≤ ++ <25%) | ++ (5% ≤ ++ <25%) | ++ (5% ≤ ++ <25%) | + (LOQ ≤ + <5%) | + (LOQ ≤ + <5%) | ++ (5% ≤ ++ <25%) | +++ (25% ≤ +++ <50%) | ++++ (50% ≤ ++++) | < 3 mg/kg |
| CCCN[C@@H]1COCc2ccccc21.Cl [Example 262] | – | + (LOQ ≤ + <5%) | + (LOQ ≤ + <5%) | + (LOQ ≤ + <5%) | + (LOQ ≤ + <5%) | ++ (5% ≤ ++ <25%) | + (LOQ ≤ + <5%) | + (LOQ ≤ + <5%) | ++ (5% ≤ ++ <25%) | ++ (5% ≤ ++ <25%) | 10 to 30 mg/kg |
| Cc1cccc2c1COCC2N.Cl (stereo not drawn) [Example 27] | 3 to 10 mg/kg | + (LOQ ≤ + <5%) | ++ (5% ≤ ++ <25%) | ++ (5% ≤ ++ <25%) | ++ (5% ≤ ++ <25%) | ++ (5% ≤ ++ <25%) | ++ (5% ≤ ++ <25%) | ++ (5% ≤ ++ <25%) | + (LOQ ≤ + <5%) | +++ (25% ≤ +++ <50%) | – |
